Data taken from ChEMBL document CHEMBL1201862, “PubChem BioAssay data set” (2004).
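Five concentrations, 48 hours, 96-well plates. The concentration for 50% growth inhibition is given as GI50.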 Activity calls are given as the source filed them. No stated cut-off is given here; in the data, active = GI50 up to about 1.1 µM and inactive = higher.

How the values were obtained:
Experiment in all cases: NCI-60 cell line screen, 48 h
[1] = tested on: OVCAR-5
[2] = tested on: TK-10
[3] = tested on: HT-29
[4] = tested on: T47D
[5] = tested on: IGROV-1
[6] = tested on: SK-MEL-28
[7] = tested on: HCT-116
[8] = tested on: SK-MEL-2
[9] = tested on: U-251
[10] = tested on: SNB-19
[11] = tested on: HOP-62
[12] = tested on: MDA-MB-231
[13] = tested on: SK-MEL-5
[14] = tested on: Hs-578T
[15] = tested on: OVCAR-8
[16] = tested on: RXF 393
[17] = tested on: UACC-62
[18] = tested on: SNB-75
[19] = tested on: MDA-N
[20] = tested on: OVCAR-4

Measured: GI50

COC(=O)C1=C(C)NC(C)=C(C(=O)OC)C1c1ccc(N=O)cc1
inactive: [1] 17.5 µM | [2] 15.4 µM | [3] 13.6 µM | [4] 6.62 µM | [5] 16.1 µM | [6] 17.1 µM | [7] 6.12 µM | [8] 13.7 µM | [9] 17.4 µM | [10] 38.7 µM | [11] 23.8 µM | [12] 11.4 µM | [13] 16.6 µM | [14] 7.31 µM | [15] 8.45 µM | [16] 8.22 µM | [17] 15.3 µM | [18] 13.4 µM | [19] 6.75 µM | [20] 3.14 µM

[O-][N+](CCO)(CCO)c1ncnc2[nH]cnc12
inactive: [1] > 100 µM | [2] > 100 µM | [3] > 100 µM | [4] > 100 µM | [5] > 100 µM | [6] > 100 µM | [7] > 100 µM | [8] > 100 µM | [9] > 100 µM | [10] > 100 µM | [11] > 100 µM | [12] > 100 µM | [13] > 100 µM | [14] > 100 µM | [15] > 100 µM | [16] > 100 µM | [17] > 100 µM | [18] > 100 µM | [19] > 100 µM | [20] > 100 µM

O=C(O)c1nn(-c2ccccc2-c2nnc(O)nc2O)c(=O)[nH]c1=O
inactive: [1] > 100 µM | [2] > 100 µM | [3] > 100 µM | [4] > 100 µM | [5] > 100 µM | [6] > 100 µM | [7] > 100 µM | [8] > 100 µM | [9] > 100 µM | [10] > 100 µM | [11] > 100 µM | [12] > 100 µM | [13] > 100 µM | [14] > 100 µM | [15] > 100 µM | [16] > 100 µM | [17] > 100 µM | [18] > 100 µM | [19] > 100 µM | [20] > 100 µM

O=C(/C=C/c1ccccc1)Oc1cccc(Br)c1
inactive: [1] > 100 µM | [2] > 100 µM | [3] 30.5 µM | [4] 53.3 µM | [5] 17.7 µM | [6] > 100 µM | [7] 25.6 µM | [8] > 100 µM | [9] 29.5 µM | [10] 31.7 µM | [11] > 100 µM | [12] > 100 µM | [13] 55.3 µM | [14] 16.6 µM | [15] 60.4 µM | [16] 56.8 µM | [17] 74 µM | [18] 45.3 µM | [19] 96.6 µM | [20] 93.8 µM

CC(=O)NNc1nc(-c2ccc([N+](=O)[O-])cc2)c(C#N)c(=O)n1C
inactive: [1] 27.5 µM | [2] 24 µM | [3] 99.3 µM | [4] > 100 µM | [5] 16.8 µM | [6] > 100 µM | [7] 34.5 µM | [8] > 100 µM | [9] 20.8 µM | [10] > 100 µM | [11] 26.9 µM | [12] 15.8 µM | [13] > 100 µM | [14] 27.1 µM | [15] 27 µM | [16] 57 µM | [17] 66.8 µM | [18] 18.9 µM | [19] 86.7 µM | [20] 20.1 µM

CN1CCN(CCCBr)CC1
inactive: [1] > 100 µM | [2] > 100 µM | [3] > 100 µM | [4] > 100 µM | [5] > 100 µM | [6] > 100 µM | [7] > 100 µM | [8] > 100 µM | [9] > 100 µM | [10] > 100 µM | [11] > 100 µM | [12] > 100 µM | [13] > 100 µM | [14] > 100 µM | [15] > 100 µM | [16] > 100 µM | [17] > 100 µM | [18] > 100 µM | [19] > 100 µM | [20] > 100 µM

C1CSCCSCCSCCSCCS1
inactive: [1] > 100 µM | [2] > 100 µM | [3] > 100 µM | [4] > 100 µM | [5] > 100 µM | [6] > 100 µM | [7] > 100 µM | [8] > 100 µM | [9] > 100 µM | [10] > 100 µM | [11] > 100 µM | [12] > 100 µM | [13] > 100 µM | [14] > 100 µM | [15] > 100 µM | [16] > 100 µM | [17] > 100 µM | [18] > 100 µM | [19] > 100 µM | [20] > 100 µM

CC(C)(C)OC(=O)NCCC1CN(C(=O)c2ccccc2)c2ccccc21 (stereo not given)
inactive: [1] 32.7 µM | [2] 56.2 µM | [3] 23.2 µM | [4] 25.2 µM | [5] 29.5 µM | [6] 32.7 µM | [7] 17.8 µM | [8] 27.7 µM | [9] 40 µM | [10] 32 µM | [11] 25.8 µM | [12] 40.1 µM | [13] 16.4 µM | [14] 43.5 µM | [15] 25.6 µM | [16] 28 µM | [17] 19 µM | [18] 28.7 µM | [19] 21.6 µM | [20] 36.9 µM

C[C@]12CC[C@@H]3c4ccc(O)cc4CC[C@H]3[C@@H]1C/C(=C\c1ccncc1)[C@@H]2O
inactive: [1] 28.6 µM | [2] 22.9 µM | [3] 15.1 µM | [4] 3.55 µM | [5] 7.43 µM | [6] 22.3 µM | [7] 10.9 µM | [8] 11.4 µM | [9] 11.8 µM | [10] 23.4 µM | [11] 14.8 µM | [12] 10.1 µM | [13] 4.18 µM | [14] 4.42 µM | [15] 11.4 µM | [16] 2.5 µM | [17] 10.8 µM | [18] 2.98 µM | [19] 3.99 µM | [20] 14.8 µM

CC(C)(C)[Si](C)(C)OCCc1ccccc1C1CC2(S(=O)(=O)c3ccccc3)ON1CC2S(=O)(=O)c1ccccc1 (stereo not given)
active: [4] < 0.01 µM
inactive: [1] > 100 µM | [2] > 100 µM | [3] > 100 µM | [5] > 100 µM | [6] > 100 µM | [7] > 100 µM | [8] > 100 µM | [9] > 100 µM | [10] > 100 µM | [11] > 100 µM | [12] > 100 µM | [13] > 100 µM | [14] > 100 µM | [15] > 100 µM | [16] > 100 µM | [17] > 100 µM | [18] > 100 µM | [19] > 100 µM | [20] > 100 µM
